Test results published in patent US20230085307A1, “PYRIDAZINONE COMPOUND AND HERBICIDE” (NISSAN CHEMICAL CORPORATION, priority 2019, published 2023).

How the values were obtained:
persian speedwell = assay: Test Example 5: herbicidal effect by foliage application, plastic box (Table 20, symbol R); type: in vivo, Persian speedwell (Veronica persica); conditions: foliage application, 320 g/ha
How it was run: (§1)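 Plants were sown into sterilized diluvial soil under about 1.5 cm cover and kept in a greenhouse at 25° C. to 30° C. Fourteen days on, foliage received an even spray of the diluted emulsion. Herbicidal or crop effect was judged three weeks afterwards.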

barnyard grass [1] = assay: Test Example 4: herbicidal effect by soil treatment (Table 19, symbol H); type: in vivo, barnyard grass (Echinochloa crus-galli); conditions: amount of applied herbicide 320 g/ha
How it was run: (§2)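 In this soil treatment, the formulated compound reached the seeds only through the soil: seeds were buried about 1.5 cm deep in sterilized diluvial soil, then the diluted emulsion was sprayed over the surface. After three weeks at 25° C. to 30° C. in a greenhouse, effects were graded on criteria from an earlier test.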

oval-leafed pondweed [2] = assay: Test Example 2: herbicidal activity, application during weed generation under submerged conditions (Table 17, symbol C); type: in vivo, oval-leafed pondweed (Monochoria vaginalis); conditions: AAH 320 g/ha; application during weed generation, submerged conditions
How it was run: (§3)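 Mixed weed seedlings in alluvial soil under a 4 cm water layer, greenhouse-grown at 25–30° C. Compound given as a diluted emulsion into the floodwater at the 1–2 leaf stage; response graded after three weeks.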

Japanese bulrush [3] = assay: Test Example 2: herbicidal activity, application during weed generation under submerged conditions (Table 17, symbol B); type: in vivo, Japanese bulrush (Schoenoplectus juncoides); conditions: AAH 320 g/ha; application during weed generation, submerged conditions
How it was run: as §3

southern crabgrass = assay: Test Example 5: herbicidal effect by foliage application, plastic box (Table 20, symbol F); type: in vivo, southern crabgrass (Digitaria ciliaris); conditions: foliage application, 320 g/ha
How it was run: as §1

wild oat [4] = assay: Test Example 5: herbicidal effect by foliage application, plastic box (Table 20, symbol I); type: in vivo, wild oat (Avena fatua); conditions: foliage application, 320 g/ha
How it was run: as §1

chickweed [5] = assay: Test Example 4: herbicidal effect by soil treatment (Table 19, symbol P); type: in vivo, common chickweed (Stellaria media); conditions: amount of applied herbicide 320 g/ha
How it was run: as §2

chickweed [6] = assay: Test Example 5: herbicidal effect by foliage application, plastic box (Table 20, symbol P); type: in vivo, common chickweed (Stellaria media); conditions: foliage application, 320 g/ha
How it was run: as §1

green foxtail [7] = assay: Test Example 5: herbicidal effect by foliage application, plastic box (Table 20, symbol G); type: in vivo, green foxtail (Setaria viridis); conditions: foliage application, 320 g/ha
How it was run: as §1

Japanese bulrush [8] = assay: Test Example 1: herbicidal activity, application before weed generation under submerged conditions (Table 16, symbol B); type: in vivo, Japanese bulrush (Schoenoplectus juncoides); conditions: 320 g/ha applied herbicide
How it was run: (§4)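 Alluvial soil was flooded to 4 cm depth, weed seeds were sown mixed and 2.5-leaf rice seedlings were transplanted. On sowing day, the compound's emulsion, diluted in water to a set dose, was applied to the water surface. Plants grew at 25–30 °C and were scored 0–5 after three weeks.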

green foxtail [9] = assay: Test Example 4: herbicidal effect by soil treatment (Table 19, symbol G); type: in vivo, green foxtail (Setaria viridis); conditions: amount of applied herbicide 320 g/ha
How it was run: as §2

barnyard grass [10] = assay: Test Example 5: herbicidal effect by foliage application, plastic box (Table 20, symbol H); type: in vivo, barnyard grass (Echinochloa crus-galli); conditions: foliage application, 320 g/ha
How it was run: as §1

redroot pigweed = assay: Test Example 4: herbicidal effect by soil treatment (Table 19, symbol N); type: in vivo, redroot pigweed (Amaranthus retroflexus); conditions: amount of applied herbicide 320 g/ha
How it was run: as §2

oval-leafed pondweed [11] = assay: Test Example 1: herbicidal activity, application before weed generation under submerged conditions (Table 16, symbol C); type: in vivo, oval-leafed pondweed (Monochoria vaginalis); conditions: 320 g/ha applied herbicide
How it was run: as §4

windgrass = assay: Test Example 5: herbicidal effect by foliage application, plastic box (Table 20, symbol L); type: in vivo, windgrass (Apera spica-venti); conditions: foliage application, 320 g/ha, three weeks after application
How it was run: as §1

wild oat [12] = assay: Test Example 4: herbicidal effect by soil treatment (Table 19, symbol I); type: in vivo, wild oat (Avena fatua); conditions: amount of applied herbicide 320 g/ha
How it was run: as §2

[13] = evaluated three weeks after application

SMILES: CCCC(=O)Oc1c(C)nn(C)c(=O)c1-c1c(-c2ccc(OCC)cc2)sc2ccccc12 [1-014]
- herbicidal effect grade, R: persian speedwell (persian speedwell; three weeks after application): 5 (Herbicidal rate of 90% or more (almost completely withered))
- herbicidal effect rating, H: barnyard grass (barnyard grass [1]): 2 (Herbicidal rate of 20% or more and less than 40%)
- herbicidal effect rating, C: oval-leafed pondweed (oval-leafed pondweed [2]): 3 (Herbicidal rate of 40% or more and less than 70%)
- herbicidal effect rating, B: Japanese bulrush (Japanese bulrush [3]): 3 (Herbicidal rate of 40% or more and less than 70%)
- herbicidal effect grade, F: southern crabgrass (southern crabgrass; three weeks after application): 0 (Herbicidal rate of 5% or less (almost no effect))
- herbicidal effect grade, I: wild oat (wild oat [4]; three weeks after application): 1 (Herbicidal rate of 5% or more and less than 20%)
- herbicidal effect rating, P: chickweed (chickweed [5]): 4 (Herbicidal rate of 70% or more and less than 90%)
- herbicidal effect grade, P: chickweed (chickweed [6]; three weeks after application): 5 (Herbicidal rate of 90% or more (almost completely withered))
- herbicidal effect grade, G: green foxtail (green foxtail [7]; three weeks after application): 4 (Herbicidal rate of 70% or more and less than 90%)
- Herbicidal effect on B: Japanese bulrush (grade 0-5) (Japanese bulrush [8]): 5 (Herbicidal rate of 90% or more (almost completely withered))
- herbicidal effect rating, G: green foxtail (green foxtail [9]): 1 (Herbicidal rate of 5% or more and less than 20%)
- herbicidal effect grade, H: barnyard grass (barnyard grass [10]; three weeks after application): 4 (Herbicidal rate of 70% or more and less than 90%)
- herbicidal effect rating, N: redroot pigweed (redroot pigweed): 0 (Herbicidal rate of 5% or less (almost no effect))
- Herbicidal effect on C: oval-leafed pondweed (grade 0-5) (oval-leafed pondweed [11]): 5 (Herbicidal rate of 90% or more (almost completely withered))
- herbicidal effect grade, L: windgrass (windgrass): 0 (Herbicidal rate of 5% or less (almost no effect))
- herbicidal effect rating, I: wild oat (wild oat [12]): 0 (Herbicidal rate of 5% or less (almost no effect))

SMILES: CCCC(=O)Oc1c(C)nn(C)c(=O)c1-c1c(-c2ccc(SCC)cc2)sc2ccc(F)cc12 [2-245]
- herbicidal effect on R: persian speedwell (criteria 0-5) (persian speedwell; [13]): 5 (Herbicidal rate of 90% or more (almost completely withered))
- herbicidal effect on H: barnyard grass (barnyard grass [1]): 5 (Herbicidal rate of 90% or more (almost completely withered))
- herbicidal effect rating, C: oval-leafed pondweed (oval-leafed pondweed [2]): 4 (Herbicidal rate of 70% or more and less than 90%)
- herbicidal effect rating, B: Japanese bulrush (Japanese bulrush [3]): 3 (Herbicidal rate of 40% or more and less than 70%)
- herbicidal effect on F: southern crabgrass (criteria 0-5) (southern crabgrass; [13]): 5 (Herbicidal rate of 90% or more (almost completely withered))
- herbicidal effect on I: wild oat (criteria 0-5) (wild oat [4]; [13]): 5 (Herbicidal rate of 90% or more (almost completely withered))
- herbicidal effect on P: chickweed (chickweed [5]): 4 (Herbicidal rate of 70% or more and less than 90%)
- herbicidal effect on P: chickweed (criteria 0-5) (chickweed [6]; [13]): 5 (Herbicidal rate of 90% or more (almost completely withered))
- herbicidal effect on G: green foxtail (criteria 0-5) (green foxtail [7]; [13]): 5 (Herbicidal rate of 90% or more (almost completely withered))
- Herbicidal effect on B: Japanese bulrush (grade 0-5) (Japanese bulrush [8]): 3 (Herbicidal rate of 40% or more and less than 70%)
- herbicidal effect on G: green foxtail (green foxtail [9]): 5 (Herbicidal rate of 90% or more (almost completely withered))
- herbicidal effect on H: barnyard grass (criteria 0-5) (barnyard grass [10]; [13]): 5 (Herbicidal rate of 90% or more (almost completely withered))
- herbicidal effect on N: redroot pigweed (redroot pigweed): 5 (Herbicidal rate of 90% or more (almost completely withered))
- Herbicidal effect on C: oval-leafed pondweed (grade 0-5) (oval-leafed pondweed [11]): 3 (Herbicidal rate of 40% or more and less than 70%)
- herbicidal effect on I: wild oat (wild oat [12]): 2 (Herbicidal rate of 20% or more and less than 40%)
